Laboratory results from a melting point compilation (Tetko et al.; mined from patent text by program, amines drawn as free bases though some values may be those of a salt).

First: CC(=O)NC[C@H]1CN(c2ccc(N3CCC(n4cccc4)CC3)c(F)c2)C(=O)O1
Second: O=[N+]([O-])c1ccc(N2CC(O)C2)c(F)c1
The melting point of the first is higher: 208 to 210 °C for the first, 130 to 132 °C for the second.

First: Cc1cccc(C(C)(C)CC(O)(C(=O)Nc2ccc3c(c2)COC3=O)C(F)(F)F)c1 (stereo not given)
Second: CC1(N2Cc3cc(CNC(=O)c4ccc(OC(F)(F)F)cc4)ccc3C2=O)CCC(=O)NC1=O (stereo not given)
The melting point of the first is lower: 152 to 153 °C for the first, 224 to 226 °C for the second.

First: CCN(CC)c1ccc(C(=O)OC)nc1
Second: COC(=O)c1ccc2[nH]cc(CC#N)c2c1
The melting point of the first is lower: 52 to 53.5 °C for the first, 127 to 129 °C for the second.

Compared with `COC(=O)c1snc(-c2ccc([N+](=O)[O-])cc2)c1C(=O)OC`, `CS(=O)(=O)c1ccc(-c2cc(=O)cc(C(=O)O)o2)cc1` is higher in melting point: 142 to 143 °C for the first, 269 to 271 °C for the second.

First: CCOC(=O)c1c(C)nc2c(c1N)c1c(n2Cc2ccc(OC)cc2)CCCC1
Second: CCOC(=O)/C=C/c1nc(COc2ccc(CO)cc2OC)c(C)o1
The melting point of the first is higher: 108 to 110 °C for the first, 96 to 97 °C for the second.

First: NS(=O)(=O)c1ccccc1C1=CCCC1
Second: CC(C)(C)OC(=O)N1CC=C(c2nc3c(Cl)cccc3s2)CC1
The melting point of the first is higher: 112 to 113 °C for the first, 98 to 101 °C for the second.

Compared with `O=C(Nc1ccc2ccc(Cl)nc2n1)C1=CCC=CC1`, `CC(NC1=Nc2ccccc2C(=O)N(C)C1)c1ccccc1` (stereo not given) is lower in melting point: 210 °C for the first, 150 to 151 °C for the second.

Compared with `O=S(c1ccccc1)c1cccnc1` (stereo not given), `O=C1C(=Cc2ccccc2)c2ccccc2N1C1=NCCS1` is higher in melting point: 56 °C for the first, 120 to 125 °C for the second.

`CN(C)C(=O)CN1CCC(c2ccc(Nc3nc4c(-c5cnn(-c6ccc(F)cc6)c5)cccn4n3)cc2)CC1` and `CC#CC1Cc2ccc(C(=O)CCC(=O)N3CCC(c4ccc(Cl)cc4)CC3)cc2CCN1` (stereo not given) cannot be ordered by melting point: 131 to 133 °C for the first, 132 to 134 °C for the second.

First: CCCn1cc(Cc2ccc(C(=O)O)cc2OC)c2cc(C=CCCC(=O)N(C)C)ccc21
Second: CCOc1cc(O)c2cc(C(C)=O)ccc2n1
The melting point of the first is lower: 151 to 153 °C for the first, 210 to 219 °C for the second.

Compared with `CCc1noc(CN2C(=O)c3ccccc3C2=O)n1`, `Cc1noc(-c2ccccc2)c1/C=C/C(=O)O` is higher in melting point: 106 to 107 °C for the first, 173 to 174 °C for the second.

First: NC(=O)[C@H](CO)Nc1nc(SCc2cccc(F)c2F)nc2nc(N)sc12
Second: CCOC(=O)COc1ccc(C(=O)c2c(Br)cnn2CC)c(Cl)c1Cl
The melting point of the first is higher: 145 to 151 °C for the first, 90 to 91 °C for the second.

First: CCOC(=O)/C=C/C1N(C(C)C)C(=O)c2ccccc2C1(O)c1ccc(F)cc1OC (stereo not given)
Second: Cc1ccc(C(=O)c2c(C)cc(C)cc2OCC(O)CNC(C)(C)C)cc1 (stereo not given)
The melting point of the first is higher: 178 to 179 °C for the first, 116 to 118 °C for the second.

Compared with `Cc1cc(C2=NNC(C(N)=O)Cc3cc4c(cc32)OCO4)ccc1[N+](=O)[O-]` (stereo not given), `CS(=O)(=O)c1ccc(Oc2cc(OCC3CCOCC3)c3[nH]c(C4=NCC(CCO)S4)cc3c2)cc1` (stereo not given) is lower in melting point: 246 to 249 °C for the first, 104 to 105 °C for the second.

Compared with `CC(C)(C)c1cc(OCC(N)=S)cc(C(C)(C)C)c1O`, `CC(C)(C)OC(=O)CC[C@H](NC(=O)c1ccc(N(CCCl)CCCl)cc1F)C(=O)OC(C)(C)C` is lower in melting point: 163 to 164 °C for the first, 90 to 92 °C for the second.

First: O=C(CN1CCN(CC2CCn3c(nc4ccccc43)S2)CC1)N1CCCC1 (stereo not given)
Second: O=C(O)CCN1CCN(Cc2ccccc2)CC1
The melting point of the first is lower: 159 to 162 °C for the first, 165 to 166 °C for the second.

First: Cc1cc2cc(Nc3ccnc4cc(-c5ccc(C=O)cc5)sc34)ccc2[nH]1
Second: COc1cccc(-c2ccc3[nH]c4c(ccc5cc[nH]c54)c3c2)c1
The melting point of the first is higher: 223 to 240 °C for the first, 202 to 205 °C for the second.

First: CC(=O)Nn1c(=S)[nH]c2cc(C(=O)O)ccc21
Second: CC(=O)C(=O)N[C@H](CO[N+](=O)[O-])c1ccccc1
The melting point of the first is higher: 334 to 338 °C for the first, 76 to 77 °C for the second.

Going from `FC(F)(F)c1cc(-c2ccc(Cl)c(Cl)c2)nc2c(-c3cccnc3)cnn12` to `CC1(Cl)C=CC2=C(c3cccc(CCCC(=O)O)c3)C(CC(=O)Nc3ccc(F)cc3C(F)(F)F)C(=O)OC2=C1` (stereo not given), the melting point falls from 224 °C to 196 °C.

First: CC(CN(C)C)Nc1ccnc2cc(Cl)ccc12 (racemic)
Second: COc1cc(OC)c2nccc(Cl)c2c1
The melting point of the first is higher: 168 to 170 °C for the first, 115 to 116 °C for the second.

First: CC12CCC3C(CC4OC45CC=CCC35C)C1CC=C2Br (stereo not given)
Second: COc1cc(OC)c(C23CC4CC(CC(C4)C2)C3)cc1C#Cc1ccc(C(=O)O)cc1
The melting point of the first is lower: 146 to 147 °C for the first, 152 to 154 °C for the second.

First: C#Cc1ccc(-c2ccccc2F)cc1
Second: Clc1ccc(-c2n[nH]c(SC3CCNCC3)c2-c2ccncc2)cc1
The melting point of the first is lower: 28.5 to 31 °C for the first, 211 °C for the second.

Compared with `O=C1NC(=O)C(=Cc2ccc(OCCN3CCN(c4ccccn4)CC3)cc2)S1`, `O=C(O)c1ccc(C#Cc2ccc(OCCCO)c(C34CC5CC(CC(C5)C3)C4)c2)cc1` is higher in melting point: 158 to 160 °C for the first, 290 to 292 °C for the second.

First: CCN1C(=O)C(C)(C)C(=O)N(C)c2cc(CN(CCn3ccc4oc(C)cc4c3=O)Cc3ccncc3)ccc21
Second: CC(=O)OC1CSC(Oc2cccc3onc(C)c23)C(OC(C)=O)C1OC(C)=O (stereo not given)
The melting point of the first is lower: 143 to 145 °C for the first, 155 to 158 °C for the second.

Compared with `CC(Br)=C(Br)CC(O)(Cn1cncn1)C1(Cl)CC1` (stereo not given), `CCCNC(C=Cc1ccccc1Cl)=NC#N` is higher in melting point: 55 to 56 °C for the first, 134 to 136 °C for the second.
